# Results: PMC9694197, “Undescribed Metabolites from an Actinobacteria Acrocarpospora punica and Their Anti-Inflammatory Activity” (Molecules, 2022)
# “Also recorded” adds a separate entry of the source. Where two headings read alike, the source gives them in different places.
# Experiments:
# Type in all cases: cell-based, mouse
# RAW 264.7 cells = test: Cell viability, MTT assay; conditions: RAW 264.7, MTT assay, with 1 μg/mL LPS, 20 h; mean ± S.E.M.
# Method: (§1) The six isolates, in sufficient amounts, were evaluated by examining their inhibitory effects on LPS-induced inducible nitric oxide synthase (iNOS)-dependent NO production in the murine macrophage cell line RAW 264.7 (Table 5). […] (e) Compounds 3 and 6 belong to liner azaphilone skeleton and naphthenic derivatives, respectively; compound 3 has better anti-inflammatory activity than 6. […] (g) The cytotoxic effects were measured using an MTT assay.
# (§2) Mouse macrophage cell line (RAW 264.7) was obtained from the Bioresource Collection and Research Center (BCRC 60001) and cultured at 37 °C in Dulbecco’s Modified Eagle’s Medium (DMEM) supplemented with 10% fetal bovine serum (Gibco), 4.5 g/L glucose, 4 mM glutamine, penicillin (100 units/mL), and streptomycin (100 μg/mL) in a humidified atmosphere in a 5% CO2 incubator. The cells were treated with 10, 25, 50 μM natural products in the presence of 1 μg/mL LPS (lipopolysaccharide, Sigma-Aldrich) for 20 h. The concentration of NO in culture supernatants was determined as nitrite, a major stable product of NO, by a Griess reagent assay, and the cell viabilities were determined using the MTT assay as described previously.
# [1] = Cell viability, MTT assay; conditions: mouse, RAW 264.7 macrophage cells; RAW 264.7, MTT assay
# Method: as §1, §2
# [2] = system: LPS-induced NO production in RAW 264.7 murine macrophages; test: LPS-induced iNOS-dependent NO production (nitrite, Griess reagent assay); conditions: for NO inhibitory activity compared to quercetin: ratio to the positive control quercetin, RAW 264.7, LPS; for IC50: read-out: IC50, NO generation; for NO inhibitory activity (in words): RAW 264.7, LPS-stimulated
# Method: as §1, §2
# [3] = system: iNOS gene (mRNA expression); test: RT-PCR of iNOS mRNA expression after LPS treatment
# Method: as §1
# The ImProm-II Reverse Transcription System (Promega) was used to take 1 μg of the extracted total RNA, to which was added 1 μL of Oligo(dT)15 Primer, and other supplements with DEPS water. At this time, the total volume was 5 μL. The reaction was immediately placed on ice for at least 5 min, and then 5 × buffer 4 μL, MgCl2 (25 mM) 1.2 μL, dNTP Mix (10 mM) 1 μL, RNasin Ribonuclease Inhibitor 0.5 μL, ImProm-II reverse transcriptase 1 μL and DEPC H2O 6.8 μL was added; the cDNA product was obtained after the reactions of 25 °C, 5 min; 42 °C, 1 h; and 70 °C, 15 min. At the same time, a negative control group was made without reverse transcriptase to confirm whether there was DNA contamination. The obtained cDNA product was then amplified by a PCR reaction to amplify the predicted fragment.
# Using the ABI PRISM 7700 Sequence Detection System, the cDNA product was assayed for iNOS, TNF-α, IL-6 and β-actin (internal standard) in a total reaction volume of 20 μL, including 2 × IQ2 SYBR Green Fast qPCR Master Mix (2X) 10 μL, 10 μM of 5′ and 3′ primers 1 μL each. The cDNA template 1 μL reaction conditions were 95 °C, 2 min, 1 cycle; 95 °C, 5 s; and 60 °C, 30 s, 40 cycles. The primers of the PCR reaction were: sense strand iNOS, 5′-GGAGTGACGGCAAACATGACT-3′; anti-sense strand iNOS, 5′-TCGATGCACAACTGGGTGAAC-3′; sense strand IL-6, 5′-CAGAGTCCTTCAGAGAGATACAG-3′; anti-sense strand IL-6, 5′-GATGAATTGGATGGTCTTGGTCC-3′; sense strand TNF-α, 5′-CAGACCCTCACACTCAGATC-3′; anti-sense strand TNF-α, 5′-CTTTGAGATCCATGCCGTTG-3′; sense strand β-actin, 5′-GGCTGTATTCCCCTCCATCG-3′; and anti-sense strand β-actin, 5′-CCAGTTGGTAACAATGCCATGT-3′.
# [4] = RAW 264.7 murine macrophages, 1 μg/mL LPS, 20 h, mean ± S.E.M. of three independent experiments
# [5] = Mus musculus, RAW264.7, 20 h, RAW 264.7 murine macrophages, 1 μg/mL LPS, 20 h, mean ± S.E.M. of three independent experiments
SMILES,Cell Viability (% Control) (RAW 264.7 cells),viability at 20 h [1],NO inhibitory activity compared to quercetin [2],Effect on LPS-increased iNOS mRNA expression [3],"IC50 ([2]; RAW 264.7 murine macrophages, 1 μg/mL LPS, 20 h, mean ± S.E.M. of three independent experiments, listed as 2)","IC50 [2, 4]","IC50 ([2]; RAW 264.7 murine macrophages, 1 μg/mL LPS, 20 h, mean ± S.E.M. of three independent experiments, listed as 3)","IC50 [2, 5]",NO inhibitory activity (in words) [2],"IC50 ([2]; Mus musculus, RAW264.7, 20 h)"
"CC=CC1=CC2=CC3=C(C(=O)CCCCC)C(=O)OC3(C)C(=O)C2=CN1CC (centres unmarked) [Acrocarpunicain A (1), acrocarpunicain A]",100 ± 15.5 % Control,> 90%,about 4 fold,inhibited this increase in a concentration-dependent manner; also recorded: significantly inhibited,–,–,–,–,–,–
"CC=CC1=CC2=CC3=C(C(=O)CCCCCCC)C(=O)OC3(C)C(=O)C2=CN1CC (centres unmarked) [Acrocarpunicain B (2), acrocarpunicain B]",95.5 ± 4.2 % Control,> 90%,~3 fold,inhibited this increase in a concentration-dependent manner; also recorded: significantly inhibited,≤ 27.2 µM,10.1 ± 0.47 µM,–,–,–,–
"C/C=C/c1cc2cc3c(c(=O)c-2co1)C(=O)OC3C (centres unmarked) [Acrocarpunicain C (3), (E)-1-methyl-7-(prop-1-en-1-yl)-3H-furo [3,4-g]isochromene-3,4(1H)-dione]",92.7 ± 4.1 % Control,> 90%,~7 fold,inhibited this increase in a concentration-dependent manner; also recorded: significantly inhibited,–,5.15 ± 0.18 µM,≤ 27.2 µM,–,–,–
"CC=CC1=C(C)C(=O)C2(C)OC(=O)C(C(=O)CCCCC)C2C1 (centres unmarked) [Acrocarpunicain D (4), acrocarpunicain D]",62.2 ± 3.2 % Control,–,–,–,–,–,–,41.7 ± 3.02 µM,weak NO inhibitory activity,–
"CCC(CCC(C)C1CCC2C3CC=C4CC(OC(=O)C=Cc5cc(O)c(OC)c(O)c5)CCC4(C)C3CCC12C)C(C)C (stereo not drawn) [Acrocarpunicain E (5), β-sitosteryl trans-3-hydroxyisoferulate]",–,–,–,–,–,–,–,–,no NO inhibitory activity,67.4 ± 4.09 µM
"COc1cc2ccc3c(c2cc1C(C)C)CCCC3(C)C [Acrocarpunicain F (6), 6-isopropyl-7-methoxy-1,1-dimethyl-1,2,3,4-tetrahydrophenanthrene]",91.3 ± 7.1 % Control,> 90%,~1.2 fold,inhibited this increase in a concentration-dependent manner; also recorded: significantly inhibited,–,27.2 ± 1.87 µM,–,≤ 27.2 µM,–,–
"O=c1c(O)c(-c2ccc(O)c(O)c2)oc2cc(O)cc(O)c12 [Quercetin, reference compound]",95.9 ± 1.3 % Control,–,–,–,–,–,–,36 ± 2.34 µM,–,–
